This experiment concerns human fecal bacteria. Description: Measure of prebiotic effect (MPE), stirred pH-controlled batch culture fermentations. It is filed as cell-based. The method, then: Quantitative in vitro methods are known for measuring the prebiotic effect of a fiber. The measurable effect a fiber has on the growth of major bacterial species in the human gut, bifidobacteria and lactobacilli in particular, is the measure of the prebiotic effect (MPE). MPE has three components:
1. the rate fiber is fermented;
2. the changes in bacterial populations; and
3. the production of SCFA.
The rate of fiber fermentation is determined by the change in the concentration of fiber over time. Thus, the quicker the fiber concentration decreases, the faster the rate of fermentation by bacteria. Changes in bacterial populations are measured by the “prebiotic index,” which considers increases in the growth rate of bifidobacteria, lactobacilli, and eubacteria as positive effects and increases in bacteriodes, clostridia, Escherichia coli, and sulphate-reducing bacteria as negative effects. Different fibers support the growth of distinct bacteria and therefore yield varying patterns and/or amounts of SCFA. However, the prebiotic effect is usually associated with lactic acid-producing bacteria, bifidobacteria and lactobacilli being principle lactic acid producers. Therefore, the ratio of lactic acid production relative to the total SCFA production provides a qualitative as well as quantitative assessment of the fibers being examined. The MPE provides a quantitative analysis of the prebiotic potential of a fiber and provides further support for the benefits of specific fibers. Therefore, the MPE is a useful tool in identifying the types and specific amounts of fiber that promote optimal digestive health and prevent or treat intestinal diseases.
Each value is based on stirred, pH-controlled batch culture fermentations using 0.25%, 0.5%, and 1.0% (w/v) substrates in the presence of human fecal bacteria.

For `OC[C@H]1O[C@@](CO)(O[C@H]2O[C@H](CO)[C@@H](O)[C@H](O)[C@H]2O)[C@@H](O)[C@@H]1O` [Sucrose], the MPE is −0.3 (0.25% (w/v) substrate), −0.3 (0.5% (w/v) substrate) and −0.6 (1% (w/v) substrate).
